# Literature values as cited in patent US20260078132A1, “SOLID FORMS OF AN INHIBITOR OF HIF AND METHODS OF USING SAME” (ONCOSPHERIX INC., priority 2022, published 2026).
# What was measured:
# [1] = target: T1, p300 (Homo sapiens, UniProt Q09472)
# [2] = target: T1, p300; remark: listed apart in the source
# T1 sequence (Q09472 whole entry, species assumed): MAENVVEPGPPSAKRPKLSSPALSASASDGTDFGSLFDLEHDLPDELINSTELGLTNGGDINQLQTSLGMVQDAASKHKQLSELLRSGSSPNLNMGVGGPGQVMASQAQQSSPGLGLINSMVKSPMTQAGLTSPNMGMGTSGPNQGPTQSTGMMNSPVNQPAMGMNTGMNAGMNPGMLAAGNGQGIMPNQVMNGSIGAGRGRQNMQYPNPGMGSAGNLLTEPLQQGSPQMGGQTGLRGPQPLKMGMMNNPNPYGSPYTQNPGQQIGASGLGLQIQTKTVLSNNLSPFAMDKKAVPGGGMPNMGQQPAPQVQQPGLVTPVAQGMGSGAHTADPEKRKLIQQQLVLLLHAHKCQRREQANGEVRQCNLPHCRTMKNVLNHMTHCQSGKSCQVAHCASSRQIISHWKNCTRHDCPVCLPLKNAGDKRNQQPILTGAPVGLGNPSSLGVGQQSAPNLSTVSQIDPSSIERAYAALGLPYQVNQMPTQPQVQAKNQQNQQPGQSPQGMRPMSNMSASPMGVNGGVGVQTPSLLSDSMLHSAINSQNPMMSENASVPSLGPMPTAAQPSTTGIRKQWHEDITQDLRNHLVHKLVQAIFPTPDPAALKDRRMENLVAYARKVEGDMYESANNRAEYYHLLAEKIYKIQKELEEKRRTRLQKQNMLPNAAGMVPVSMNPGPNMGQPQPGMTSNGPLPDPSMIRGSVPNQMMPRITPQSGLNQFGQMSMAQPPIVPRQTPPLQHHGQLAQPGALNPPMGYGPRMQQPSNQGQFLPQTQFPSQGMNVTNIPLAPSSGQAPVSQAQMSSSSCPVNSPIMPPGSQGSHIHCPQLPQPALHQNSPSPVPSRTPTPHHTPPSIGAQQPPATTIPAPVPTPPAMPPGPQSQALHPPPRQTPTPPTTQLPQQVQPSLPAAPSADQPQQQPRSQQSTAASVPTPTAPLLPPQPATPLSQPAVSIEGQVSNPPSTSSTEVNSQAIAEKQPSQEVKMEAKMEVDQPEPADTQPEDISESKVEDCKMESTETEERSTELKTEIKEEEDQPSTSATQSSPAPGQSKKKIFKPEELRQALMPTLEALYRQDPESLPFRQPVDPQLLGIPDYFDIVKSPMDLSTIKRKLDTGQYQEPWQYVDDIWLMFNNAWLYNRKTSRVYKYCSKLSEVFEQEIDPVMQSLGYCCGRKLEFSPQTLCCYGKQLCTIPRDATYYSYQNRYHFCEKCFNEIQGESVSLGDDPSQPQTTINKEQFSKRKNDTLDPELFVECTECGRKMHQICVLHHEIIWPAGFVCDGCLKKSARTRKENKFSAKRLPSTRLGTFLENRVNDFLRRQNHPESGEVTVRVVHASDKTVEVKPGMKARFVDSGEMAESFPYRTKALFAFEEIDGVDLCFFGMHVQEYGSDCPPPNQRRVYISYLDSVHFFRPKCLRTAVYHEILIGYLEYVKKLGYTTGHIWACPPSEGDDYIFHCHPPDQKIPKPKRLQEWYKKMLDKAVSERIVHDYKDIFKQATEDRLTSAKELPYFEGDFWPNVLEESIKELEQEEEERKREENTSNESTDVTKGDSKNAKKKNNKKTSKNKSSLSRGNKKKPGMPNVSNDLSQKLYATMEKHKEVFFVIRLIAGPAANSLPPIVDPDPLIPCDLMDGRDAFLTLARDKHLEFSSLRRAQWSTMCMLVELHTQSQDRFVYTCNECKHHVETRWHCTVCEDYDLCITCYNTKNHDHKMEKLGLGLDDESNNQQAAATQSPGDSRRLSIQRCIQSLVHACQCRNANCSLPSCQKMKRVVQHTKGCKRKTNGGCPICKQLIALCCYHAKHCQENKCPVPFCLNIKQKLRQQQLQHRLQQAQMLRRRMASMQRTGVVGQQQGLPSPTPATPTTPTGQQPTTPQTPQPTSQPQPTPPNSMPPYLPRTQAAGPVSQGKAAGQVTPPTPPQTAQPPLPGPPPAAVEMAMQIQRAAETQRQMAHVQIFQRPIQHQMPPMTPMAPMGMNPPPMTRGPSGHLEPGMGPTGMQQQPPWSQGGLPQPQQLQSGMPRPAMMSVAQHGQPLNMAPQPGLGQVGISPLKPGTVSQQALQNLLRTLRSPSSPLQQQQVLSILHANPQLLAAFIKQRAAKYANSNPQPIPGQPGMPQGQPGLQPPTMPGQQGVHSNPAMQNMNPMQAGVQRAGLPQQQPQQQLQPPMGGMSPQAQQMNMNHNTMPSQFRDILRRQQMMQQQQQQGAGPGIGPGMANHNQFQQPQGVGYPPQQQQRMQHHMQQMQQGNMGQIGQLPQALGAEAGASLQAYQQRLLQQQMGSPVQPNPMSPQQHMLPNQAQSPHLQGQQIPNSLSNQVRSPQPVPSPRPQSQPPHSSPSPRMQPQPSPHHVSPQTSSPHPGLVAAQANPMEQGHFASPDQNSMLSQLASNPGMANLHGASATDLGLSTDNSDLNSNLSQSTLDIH
smiles,measurement,setting,value
"COc1ccc(S(=O)(=O)N(Cc2ccc3c(n2)C=CC(C)(C)O3)C2CCC2)cc1OC [Compound 9, N-Cyclobutyl-N-((2,2-dimethyl-2H-pyrano[3,2-b]pyridin-6-yl)methyl)-3,4-dimethoxybenzenesulfonamide]",pull-down of p300,[1],pull-down of p300 by Compound 9
same,binding to p300,[2],binding of Compound 9 to p300
